According to patent US9745291B2, “PRMT5 inhibitors containing a dihydro- or tetrahydroisoquinoline and uses thereof” (Epizyme, Inc., priority 2012, dated 2017):

target: PRMT5/MEP50 (Homo sapiens (Human), UniProt O14744); assay: PRMT5 Biochemical Assay (PRMT5/MEP50 enzyme assay on peptide substrate, 3H-SAM Flashplate); details: PRMT5 biochemical assay; read-out: Biochemical IC50
Source text: S-adenosylmethionine (SAM), S-adenosylhomocysteine (SAH), bicine, KCl, Tween20, dimethylsulfoxide (DMSO), bovine skin gelatin (BSG), and Tris(2-carboxyethyl)phosphine hydrochloride solution (TCEP) were purchased from Sigma-Aldrich at the highest level of purity possible. ^3H-SAM was purchase from American Radiolabeled Chemicals with a specific activity of 80 Ci/mmol. 384-well streptavidin Flashplates were purchased from PerkinElmer.
Peptide representative of human histone H4 residues 1-15 was synthesized with a C-terminal linker-affinity tag motif and a C-terminal amide cap by 21st Century Biochemicals. […] The sequence was Ac-[…][K-Biot]-amide (SEQ ID NO.:3).
Full-length human MEP50 (NM_024102) clone was amplified from a human testis cDNA library incorporating a 5′ sequence encoding a 6-histidine tag (MHHHHHH)(SEQ ID NO.:5) fused directly to Arg 2 of MEP50. The amplified genes were sublconed into pENTR/D/TEV (Life Technologies) and subsequently transferred by Gateway™ attL×attR recombination to pDEST8 baculvirus expression vector (Life Technologies).
Recombinant baculovirus and Baculovirus-Infected Insect Cells (BIIC) were generated according to Bac-to-Bac kit instructions (Life Technologies) and Wasilko, 2006, respectively. Protein over-expression was accomplished by infecting exponentially growing Spodoptera frugiperda (SF9) cell culture at 1.2×10^6 cell/ml with a 5000 fold dilution of BIIC stock. Infections were carried out at 27° C. for 72 hours, harvested by centrifugation, and stored at −80° C. for purification.
Flag-PRMT5/6His-MeP50 was eluted with 300 mM Imidazole in the same buffer. […] Reference: Wasilko, D. J. and S. E. Lee: “TIPS: titerless infected-cells preservation and scale-up” Bioprocess J., 5 (2006), pp. 29-32.
General Procedure for PRMT5/MEP50 Enzyme Assays on Peptide Substrates.
The assays were all performed in a buffer consisting of 20 mM Bicine (pH=7.6), 1 mM TCEP, 0.005% BSG, and 0.002% Tween20, prepared on the day of use. Compounds in 100% DMSO (1 ul) were spotted into a polypropylene 384-well V-bottom plates (Greiner) using a Platemate Plus outfitted with a 384-channel head (Thermo Scientific). DMSO (1 ul) was added to Columns 11, 12, 23, 24, rows A-H for the maximum signal control and 1 ul of SAH, a known product and inhibitor of PRMT5/MEP50, was added to columns 11, 12, 23, 24, rows I-P for the minimum signal control. A cocktail (40 ul) containing the PRMT5/MEP50 enzyme and the peptide was added by Multidrop Combi (Thermo-Fisher). The compounds were allowed to incubate with PRMT5/MEP50 for 30 min at 25 degrees Celsius, then a cocktail (10 ul) containing ^3H-SAM was added to initiate the reaction (final volume=51 ul).

Sequence of PRMT5/MEP50 (O14744 other isoform, or with tags, fused parts or gaps): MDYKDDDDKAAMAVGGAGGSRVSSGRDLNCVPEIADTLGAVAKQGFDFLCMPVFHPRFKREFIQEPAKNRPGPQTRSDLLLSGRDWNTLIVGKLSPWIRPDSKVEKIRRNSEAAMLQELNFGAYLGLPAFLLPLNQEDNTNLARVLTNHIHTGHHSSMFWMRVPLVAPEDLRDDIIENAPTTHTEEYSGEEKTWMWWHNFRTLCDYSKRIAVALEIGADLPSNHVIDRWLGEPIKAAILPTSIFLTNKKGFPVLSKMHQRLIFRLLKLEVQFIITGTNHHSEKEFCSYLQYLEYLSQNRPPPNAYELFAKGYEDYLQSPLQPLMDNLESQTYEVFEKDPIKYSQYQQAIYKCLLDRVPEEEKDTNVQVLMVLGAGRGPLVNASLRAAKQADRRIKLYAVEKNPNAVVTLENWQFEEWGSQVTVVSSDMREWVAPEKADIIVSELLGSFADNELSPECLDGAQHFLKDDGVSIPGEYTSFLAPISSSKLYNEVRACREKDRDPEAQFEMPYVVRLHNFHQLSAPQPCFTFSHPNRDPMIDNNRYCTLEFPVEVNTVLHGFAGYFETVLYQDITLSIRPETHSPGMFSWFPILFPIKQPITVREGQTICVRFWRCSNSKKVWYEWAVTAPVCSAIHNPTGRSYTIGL
Sequence of PRMT5/MEP50 (Q9BQA1 other isoform, or with tags, fused parts or gaps partner): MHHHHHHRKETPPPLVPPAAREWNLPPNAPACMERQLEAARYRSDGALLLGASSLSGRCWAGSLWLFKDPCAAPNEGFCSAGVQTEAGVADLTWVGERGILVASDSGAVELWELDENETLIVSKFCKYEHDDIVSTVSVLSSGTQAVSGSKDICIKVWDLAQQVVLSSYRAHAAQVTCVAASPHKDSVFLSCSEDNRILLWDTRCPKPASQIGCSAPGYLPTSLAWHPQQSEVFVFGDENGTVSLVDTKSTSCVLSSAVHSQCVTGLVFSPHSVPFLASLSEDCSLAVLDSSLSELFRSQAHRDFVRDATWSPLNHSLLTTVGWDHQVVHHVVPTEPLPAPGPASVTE

Which IC50 does the source give for O=C(COc1cccc2c1CCCN2Cc1ccccc1)NCC(O)CN1CCc2ccccc2C1 (centres unmarked) [Compound 4] here?
The IC50 was under 0.1 µM.

CC(Oc1ccccc1)C(=O)NCC(O)CN1CCc2ccccc2C1 (centres unmarked) [Compound 19, N-(3-(3,4-dihydroisoquinolin-2(1H)-yl)-2-hydroxypropyl)-2-phenoxypropanamide] was tested. Which IC50 did it give?
The IC50 was under 0.1 µM.

Which IC50 does the source give for COc1cccc(OCC(=O)NCC(O)CN2CCc3ccccc3C2)c1 (centres unmarked) [Compound 20, N-(3-(3,4-dihydroisoquinolin-2(1H)-yl)-2-hydroxypropyl)-2-(3-methoxyphenoxy)acetamide] here?
Its IC50 is under 0.1 µM.

For COc1ccccc1OCC(=O)NCC(O)CN1CCc2ccccc2C1 (centres unmarked) [Compound 22], which IC50 is on record?
Its IC50 is under 0.1 µM.

Which IC50 does the source give for Cn1ncc2ccc(OCC(=O)NCC(O)CN3CCc4ccccc4C3)cc21 (centres unmarked) [Compound 23, N-(3-(3,4-dihydroisoquinolin-2(1H)-yl)-2-hydroxypropyl)-2-((1-methyl-1H-indazol-6-yl)oxy)acetamide] here?
The IC50 was under 0.1 µM.

Cc1cccc(OCC(=O)NCC(O)CN2CCc3ccccc3C2)c1 (centres unmarked) [Compound 26] was tested. Which IC50 did it give?
Its IC50 is under 0.1 µM.

How did the IC50 turn out when CN(C)c1cccc(OCC(=O)NCC(O)CN2CCc3ccccc3C2)c1 (centres unmarked) [Compound 27] was run?
Its IC50 is under 0.1 µM.

How did the IC50 turn out when CS(=O)(=O)Nc1cccc(OCC(=O)NCC(O)CN2CCc3ccccc3C2)c1 (centres unmarked) [Compound 28, N-(3-(3,4-dihydroisoquinolin-2(1H)-yl)-2-hydroxypropyl)-2-(3-(methylsulfonamido)phenoxy)acetamide] was run?
Its IC50 is under 0.1 µM.

CS(=O)(=O)c1ccccc1OCC(=O)NCC(O)CN1CCc2ccccc2C1 (centres unmarked) [Compound 37, N-(3-(3,4-dihydroisoquinolin-2(1H)-yl)-2-hydroxypropyl)-2-(2-(methylsulfonyl)phenoxy)acetamide] was tested. Which IC50 did it give?
The IC50 was under 0.1 µM.

CN(C)c1ccccc1OCC(=O)NCC(O)CN1CCc2ccccc2C1 (centres unmarked) [Compound 38] was tested. Which IC50 did it give?
Its IC50 is under 0.1 µM.

Which IC50 does the source give for CC(Oc1cccc2cccnc12)C(=O)NCC(O)CN1CCc2ccccc2C1 (centres unmarked) [Compound 39, N-(3-(3,4-dihydroisoquinolin-2(1H)-yl)-2-hydroxypropyl)-2-(quinolin-8-yloxy)propanamide] here?
Its IC50 is under 0.1 µM.

Which IC50 does the source give for O=C(COc1ccccc1C1CCCCC1)NCC(O)CN1CCc2ccccc2C1 (centres unmarked) [Compound 40] here?
The IC50 was under 0.1 µM.

For CC(C)(Oc1cccc2cccnc12)C(=O)NCC(O)CN1CCc2ccccc2C1 (centres unmarked) [Compound 43, N-(3-(3,4-dihydroisoquinolin-2(1H)-yl)-2-hydroxypropyl)-2-methyl-2-(quinolin-8-yloxy)propanamide], which IC50 is on record?
Its IC50 is under 0.1 µM.

How did the IC50 turn out when CS(=O)(=O)c1cccc(OCC(=O)NCC(O)CN2CCc3ccccc3C2)c1 (centres unmarked) [Compound 47] was run?
Its IC50 is under 0.1 µM.

For O=C(COc1cccc2ccc(N3CCOCC3)nc12)NCC(O)CN1CCc2ccccc2C1 (centres unmarked) [Compound 48, N-(3-(3,4-dihydroisoquinolin-2(1H)-yl)-2-hydroxypropyl)-2-((2-morpholinoquinolin-8-yl)oxy)acetamide], which IC50 is on record?
The IC50 was under 0.1 µM.

With O=C(COc1ccccc1N1CCOCC1)NCC(O)CN1CCc2ccccc2C1 (centres unmarked) [Compound 49, N-(3-(3,4-dihydroisoquinolin-2(1H)-yl)-2-hydroxypropyl)-2-(2-morpholinophenoxy)acetamide] as the compound, how does the IC50 read?
The IC50 was under 0.1 µM.

How did the IC50 turn out when O=C(COc1ccccc1-c1cc[nH]n1)NCC(O)CN1CCc2ccccc2C1 (centres unmarked) [Compound 50, 2-(2-(1H-pyrazol-3-yl)phenoxy)-N-(3-(3,4-dihydroisoquinolin-2(1H)-yl)-2-hydroxypropyl)acetamide] was run?
The IC50 was under 0.1 µM.

How did the IC50 turn out when CS(=O)(=O)Nc1ccccc1OCC(=O)NCC(O)CN1CCc2ccccc2C1 (centres unmarked) [Compound 53] was run?
Its IC50 is under 0.1 µM.

Which IC50 does the source give for O=C(COc1cccc2c1CCCC2)NCC(O)CN1CCc2ccccc2C1 (centres unmarked) [Compound 64] here?
Its IC50 is under 0.1 µM.

For NS(=O)(=O)c1ccccc1OCC(=O)NCC(O)CN1CCc2ccccc2C1 (centres unmarked) [Compound 65], which IC50 is on record?
Its IC50 is under 0.1 µM.

Which IC50 does the source give for O=C(COc1cccc2ccccc12)NCC(O)CN1CCc2ccccc2C1 (centres unmarked) [Compound 66, N-(3-(3,4-dihydroisoquinolin-2(1H)-yl)-2-hydroxypropyl)-2-(naphthalen-1-yloxy)acetamide] here?
Its IC50 is under 0.1 µM.

Which IC50 does the source give for O=C(COc1ccccc1-c1cc[nH]n1)NC[C@@H](O)CN1CCc2ccccc2C1 [Compound 67] here?
Its IC50 is under 0.1 µM.

How did the IC50 turn out when O=C(COc1ccccc1-c1cc[nH]n1)NC[C@H](O)CN1CCc2ccccc2C1 [Compound 68] was run?
The IC50 was under 0.1 µM.

With C[C@@H](Oc1cccc2cccnc12)C(=O)NC[C@H](O)CN1CCc2ccccc2C1 [Compound 73, (R)—N—((S)-3-(3,4-dihydroisoquinolin-2(1H)-yl)-2-hydroxypropyl)-2-(quinolin-8-yloxy)propanamide] as the compound, how does the IC50 read?
The IC50 was under 0.1 µM.

With C[C@@H](Oc1cccc2cccnc12)C(=O)NC[C@@H](O)CN1CCc2ccccc2C1 [Compound 74] as the compound, how does the IC50 read?
The IC50 was under 0.1 µM.

O=C(COc1cccc(CN2CCOCC2)c1)NCC(O)CN1CCc2ccccc2C1 (centres unmarked) [Compound 75] was tested. Which IC50 did it give?
Its IC50 is under 0.1 µM.

With C[C@H](Oc1cccc2cccnc12)C(=O)NC[C@H](O)CN1CCc2ccccc2C1 [Compound 76, (S)—N—((S)-3-(3,4-dihydroisoquinolin-2(1H)-yl)-2-hydroxypropyl)-2-(quinolin-8-yloxy)propanamide] as the compound, how does the IC50 read?
Its IC50 is under 0.1 µM.

With O=C(COc1ccccc1N1CCOCC1)NC[C@H](O)CN1CCc2ccccc2C1 [Compound 77] as the compound, how does the IC50 read?
The IC50 was under 0.1 µM.

Which IC50 does the source give for CN1C(=O)COc2cccc(OCC(=O)NCC(O)CN3CCc4ccccc4C3)c21 (centres unmarked) [Compound 80, N-(3-(3,4-Dihydroisoquinolin-2(1H)-yl)-2-hydroxypropyl)-2-(4-methyl-3-oxo-3,4-dihydro-2H-benzo[b][1,4]oxazin-5-yloxy)acetamide] here?
Its IC50 is under 0.1 µM.

For CN1CCOc2cccc(OCC(=O)NCC(O)CN3CCc4ccccc4C3)c21 (centres unmarked) [Compound 81], which IC50 is on record?
Its IC50 is under 0.1 µM.

For Cn1ncc2c(OCC(=O)NCC(O)CN3CCc4ccccc4C3)cccc21 (centres unmarked) [Compound 82], which IC50 is on record?
The IC50 was under 0.1 µM.

CN1CCN(c2ccccc2OCC(=O)NC[C@H](O)CN2CCc3ccccc3C2)CC1 [Compound 84] was tested. Which IC50 did it give?
The IC50 was under 0.1 µM.

Which IC50 does the source give for O=C(COc1ccccc1OCCN1CCOCC1)NC[C@H](O)CN1CCc2ccccc2C1 [Compound 86] here?
Its IC50 is under 0.1 µM.

CN(C)CCOc1ccccc1OCC(=O)NC[C@H](O)CN1CCc2ccccc2C1 [Compound 88] was tested. Which IC50 did it give?
Its IC50 is under 0.1 µM.

For CC(=O)N1CCN(c2ccccc2OCC(=O)NCC(O)CN2CCc3ccccc3C2)CC1 (centres unmarked) [Compound 90], which IC50 is on record?
Its IC50 is under 0.1 µM.

How did the IC50 turn out when O=C(COc1cccc2c1CCNC2)NCC(O)CN1CCc2ccccc2C1 (centres unmarked) [Compound 91] was run?
The IC50 was under 0.1 µM.

For O=C(COc1cccc2nccnc12)NCC(O)CN1CCc2ccccc2C1 (centres unmarked) [Compound 92], which IC50 is on record?
Its IC50 is under 0.1 µM.

With O=C(COc1cccc(NC2CCOCC2)c1)NCC(O)CN1CCc2ccccc2C1 (centres unmarked) [Compound 93] as the compound, how does the IC50 read?
Its IC50 is under 0.1 µM.

How did the IC50 turn out when O=C(COc1c(CN2CCOCC2)ccc2cccnc12)NC[C@H](O)CN1CCc2ccccc2C1 [Compound 94] was run?
Its IC50 is under 0.1 µM.

O=C(COc1ccc2c(cnn2C2CCNC2)c1)NCC(O)CN1CCc2ccccc2C1 (centres unmarked) [Compound 95] was tested. Which IC50 did it give?
The IC50 was under 0.1 µM.

How did the IC50 turn out when CN1CCC(n2ncc3cc(OCC(=O)NCC(O)CN4CCc5ccccc5C4)ccc32)C1 (centres unmarked) [Compound 96] was run?
The IC50 was under 0.1 µM.

With COc1ccc2cccc(OCC(=O)NC[C@@H](O)CN3CCc4ccccc4C3)c2n1 [Compound 98, (R)—N-(3-(3,4-dihydroisoquinolin-2(1H)-yl)-2-hydroxypropyl)-2-((2-methoxyquinolin-8-yl)oxy)acetamide] as the compound, how does the IC50 read?
Its IC50 is under 0.1 µM.

For CN1CCc2c(cccc2OCC(=O)NCC(O)CN2CCc3ccccc3C2)C1 (centres unmarked) [Compound 99], which IC50 is on record?
The IC50 was under 0.1 µM.

Which IC50 does the source give for O=C(COc1cccc2c1OCCO2)NCC(O)CN1CCc2ccccc2C1 (centres unmarked) [Compound 100] here?
The IC50 was under 0.1 µM.

Which IC50 does the source give for CC(=O)N1CCc2c(cccc2OCC(=O)NCC(O)CN2CCc3ccccc3C2)C1 (centres unmarked) [Compound 101] here?
The IC50 was under 0.1 µM.

For CS(=O)(=O)N1CCc2c(cccc2OCC(=O)NCC(O)CN2CCc3ccccc3C2)C1 (centres unmarked) [Compound 102, N-(3-(3,4-dihydroisoquinolin-2(1H)-yl)-2-hydroxypropyl)-2-((2-(methylsulfonyl)-1,2,3,4-tetrahydroisoquinolin-5-yl)oxy)acetamide], which IC50 is on record?
Its IC50 is under 0.1 µM.

For O=C(COc1ccccc1C1CCNCC1)NCC(O)CN1CCc2ccccc2C1 (centres unmarked) [Compound 103], which IC50 is on record?
Its IC50 is under 0.1 µM.

With CN(C)c1ccc2cccc(OCC(=O)NC[C@@H](O)CN3CCc4ccccc4C3)c2n1 [Compound 105] as the compound, how does the IC50 read?
The IC50 was under 0.1 µM.

Which IC50 does the source give for O=C(COc1ccccc1S(=O)(=O)N1CCNCC1)NCC(O)CN1CCc2ccccc2C1 (centres unmarked) [Compound 107] here?
The IC50 was under 0.1 µM.

With CN1CCN(S(=O)(=O)c2ccccc2OCC(=O)NCC(O)CN2CCc3ccccc3C2)CC1 (centres unmarked) [Compound 108] as the compound, how does the IC50 read?
The IC50 was under 0.1 µM.
